Where “and” joins values, the source holds several entries; their conditions need not be identical. Equal entries are not always repeated.
Tests used:
[1] = biological target: T1, dDATNET (Drosophila melanogaster, UniProt Q7K4Y6, D121G/DEL162-202/F471L/L415A/S426M/V74A); test: [3H] nisoxetine binding, scintillation proximity assay, purified dDATNET; conditions: for Specific CPM/p.mole protein: DAT_NET, single replicates
T1 construct: GFP-8x-His (C); made in house; host or cells: HEK293S GnTI- cells, BacMam baculovirus transduction
Protocol: (§1) Binding assays were performed with 20 nM of purified dDAT protein by scintillation proximity assay. For determining nisoxetine Kd, [^3H] Nisoxetine (Perkin Elmer) (in 1:5 molar ratio) was used in the range of 0.1 nM to 500 nM with 100 µM desipramine added to the control samples. Competition assays were done with 50 nM [^3H] […] The assays were done in 1 mM DDM, 0.2 mM CHS, 20 mM Tris-Cl (pH 8), 300 mM NaCl and 5% glycerol. The background values were subtracted to plot the final curves in GraphPad prism v5.0.1 and the Kd values were calculated. The IC50 values obtained from binding competition assays were used to deduce the Ki values by Cheng–Prusoff’s equation.

[2] = biological target: T2, dDATmfc (Drosophila melanogaster, UniProt Q7K4Y6, DEL162-202/F471L/L415A/V74A); test: [3H] nisoxetine binding, scintillation proximity assay, purified dDATmfc; conditions: for Specific CPM/p.mole protein: DATmfc, single replicates
T2 construct: GFP-8x-His (C); made in house; host or cells: HEK293S GnTI- cells, BacMam baculovirus transduction
Protocol: as §1

[3] = biological target: hNET; conditions: read-out: nisoxetine-binding affinity Kd; cited from earlier work
[4] = biological target: WT dDAT; conditions: read-out: nisoxetine-binding affinity Kd; cited from earlier work
[5] = tested on: dDAT D121G/S426M; conditions: cited from earlier work

| Structure (SMILES) | Specific CPM/p.mole protein ([1]; Nisox 0.1 nM) [CPM/p.mole protein] | Specific CPM/p.mole protein ([1]; Nisox 100 nM) | Specific CPM/p.mole protein ([1]; Nisox 300 nM) | Specific CPM/p.mole protein ([1]; Nisox 500 nM) | Kd ([1]; Nisoxetine Kd, dDATNET) [nM] | Kd ([1]; dissociation constants (Kd) for nisoxetine, range over the dDAT constructs used in this study (dDATNET, dDATmfc)) [nM] | Kd [2] [nM] | Specific CPM/p.mole protein ([2]; Nisox 0.1 nM) | Specific CPM/p.mole protein ([2]; Nisox 1 nM) | Specific CPM/p.mole protein ([2]; Nisox 3 nM) | Specific CPM/p.mole protein ([2]; Nisox 10 nM) | Specific CPM/p.mole protein ([2]; Nisox 30 nM) | Specific CPM/p.mole protein ([2]; Nisox 100 nM) | Specific CPM/p.mole protein ([2]; Nisox 300 nM) | Specific CPM/p.mole protein ([2]; Nisox 500 nM) | Kd [3] [nM] | Kd [4] [nM] | increment in ability to compete for nisoxetine / affinity with hNET-like mutations D121G and S426M in subsite B [5] [fold] |
| --- | --- | --- | --- | --- | --- | --- | --- | --- | --- | --- | --- | --- | --- | --- | --- | --- | --- | --- |
| CNCCC(Oc1ccccc1OC)c1ccccc1 (stereo not drawn) [nisoxetine] | 20 | 565 CPM/p.mole protein and 636 CPM/p.mole protein and 590 CPM/p.mole protein and 524 CPM/p.mole protein and 548 CPM/p.mole protein and 546 CPM/p.mole protein and 490 CPM/p.mole protein and 531 CPM/p.mole protein and 494 CPM/p.mole protein | 687 CPM/p.mole protein and 533 CPM/p.mole protein (2×) and 630 CPM/p.mole protein and 583 CPM/p.mole protein and 563 CPM/p.mole protein and 581 CPM/p.mole protein and 730 CPM/p.mole protein and 516 CPM/p.mole protein | 735 CPM/p.mole protein and 683 CPM/p.mole protein and 709 CPM/p.mole protein and 618 CPM/p.mole protein and 586 CPM/p.mole protein and 593 CPM/p.mole protein and 630 CPM/p.mole protein and 670 CPM/p.mole protein and 642 CPM/p.mole protein | 2.79 ± 0.27 | 2.8 to 3.8 | 3.82 ± 0.39 | 7 CPM/p.mole protein and 10 CPM/p.mole protein and 3 CPM/p.mole protein and 24 CPM/p.mole protein and 15 CPM/p.mole protein (2×) and 14 CPM/p.mole protein and 9 CPM/p.mole protein and 6 CPM/p.mole protein | 126 CPM/p.mole protein and 128 CPM/p.mole protein and 141 CPM/p.mole protein and 114 CPM/p.mole protein and 102 CPM/p.mole protein and 95 CPM/p.mole protein and 97 CPM/p.mole protein and 78 CPM/p.mole protein and 120 CPM/p.mole protein | 292 CPM/p.mole protein and 269 CPM/p.mole protein and 300 CPM/p.mole protein and 210 CPM/p.mole protein and 245 CPM/p.mole protein and 211 CPM/p.mole protein and 113 CPM/p.mole protein and 184 CPM/p.mole protein and 198 CPM/p.mole protein | 455 CPM/p.mole protein (2×) and 499 CPM/p.mole protein and 413 CPM/p.mole protein (2×) and 477 CPM/p.mole protein and 371 CPM/p.mole protein (2×) and 397 CPM/p.mole protein | 491 CPM/p.mole protein and 537 CPM/p.mole protein and 503 CPM/p.mole protein and 506 CPM/p.mole protein and 442 CPM/p.mole protein (2×) and 439 CPM/p.mole protein and 427 CPM/p.mole protein and 408 CPM/p.mole protein | 566 CPM/p.mole protein and 545 CPM/p.mole protein and 533 CPM/p.mole protein and 507 CPM/p.mole protein and 558 CPM/p.mole protein and 473 CPM/p.mole protein and 465 CPM/p.mole protein and 441 CPM/p.mole protein and 405 CPM/p.mole protein | 627 CPM/p.mole protein and 611 CPM/p.mole protein and 570 CPM/p.mole protein and 569 CPM/p.mole protein and 527 CPM/p.mole protein and 520 CPM/p.mole protein and 528 CPM/p.mole protein and 490 CPM/p.mole protein and 436 CPM/p.mole protein | 632 CPM/p.mole protein and 609 CPM/p.mole protein and 595 CPM/p.mole protein and 628 CPM/p.mole protein and 619 CPM/p.mole protein and 565 CPM/p.mole protein and 554 CPM/p.mole protein and 465 CPM/p.mole protein and 467 CPM/p.mole protein | 1.9 | 5 | – |
| COC(=O)[C@H]1[C@@H](OC(=O)c2ccccc2)C[C@@H]2CC[C@H]1N2C [cocaine] | – | – | – | – | – | – | – | – | – | – | – | – | – | – | – | – | – | 10 |

— PMC8044178, “Structural basis of norepinephrine recognition and transport inhibition in neurotransmitter transporters” (Nature Communications, 2021)
